From ChEMBL document CHEMBL5352440, “Promising antimalarials targeting apicoplast DNA polymerase from Plasmodium falciparum” (Eur J Med Chem, 2022)
Calls of active or inactive are those of the source. No cut-off for these calls is given here.

How the values were obtained:
[1] = molecular target: DNA polymerase I (Escherichia coli) (UniProt P00582); assay: Inhibition of Escherichia coli DNA polymerase I
[2] = molecular target: T1, DNA-directed DNA polymerase (Enterobacteria phage T4) (UniProt P04415); assay: Inhibition of Enterobacteria T4 phage DNA polymerase
T1 sequence (whole entry): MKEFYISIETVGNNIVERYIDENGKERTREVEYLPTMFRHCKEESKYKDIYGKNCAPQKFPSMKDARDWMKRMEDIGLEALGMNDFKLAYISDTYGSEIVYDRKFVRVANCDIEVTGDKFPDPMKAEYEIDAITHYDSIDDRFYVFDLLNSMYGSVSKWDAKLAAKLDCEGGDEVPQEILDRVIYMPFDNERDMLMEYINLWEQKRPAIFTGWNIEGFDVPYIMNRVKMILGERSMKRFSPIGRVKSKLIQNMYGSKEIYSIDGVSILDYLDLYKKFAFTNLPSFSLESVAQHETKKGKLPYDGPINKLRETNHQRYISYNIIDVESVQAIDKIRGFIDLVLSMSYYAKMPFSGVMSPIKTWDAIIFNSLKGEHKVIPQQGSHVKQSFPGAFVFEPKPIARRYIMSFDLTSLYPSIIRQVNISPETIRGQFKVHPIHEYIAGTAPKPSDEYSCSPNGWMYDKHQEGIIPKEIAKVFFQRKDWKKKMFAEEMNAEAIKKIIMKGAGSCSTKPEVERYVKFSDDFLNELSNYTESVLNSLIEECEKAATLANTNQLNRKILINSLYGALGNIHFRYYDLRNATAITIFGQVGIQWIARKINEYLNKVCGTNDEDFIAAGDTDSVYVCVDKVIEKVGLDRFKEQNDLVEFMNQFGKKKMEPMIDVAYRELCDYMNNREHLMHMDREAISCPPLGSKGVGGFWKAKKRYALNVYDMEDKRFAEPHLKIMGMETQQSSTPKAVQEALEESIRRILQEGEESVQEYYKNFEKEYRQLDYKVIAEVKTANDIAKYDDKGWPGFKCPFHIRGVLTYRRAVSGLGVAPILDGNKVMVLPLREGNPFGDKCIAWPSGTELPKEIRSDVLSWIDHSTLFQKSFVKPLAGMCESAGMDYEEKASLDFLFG

Plasmodium falciparum [3] = assay: Antiparasitic activity against Plasmodium falciparum NF54 with attB plasmid infected in red blood cells assessed as reduction in parasitemia incubated for 72 hrs; format: functional, organism-based, Red blood cell; conditions: NF54, Erythrocyte
Plasmodium falciparum [4] = assay: Inhibition of plasmodium falciparum apicoplast DNA polymerase exonuclease activity using blunt-ended double stranded oligonucleotide with 2-aminopurine at position 1 on 3' end as substrate assessed as exonuclease specific activity at 100 uM (reference value: 2.2 +/- 0.09%)
Plasmodium falciparum [5] = assay: Inhibition of plasmodium falciparum apicoplast DNA polymerase exonuclease activity using blunt-ended double stranded oligonucleotide with 2-aminopurine at position 1 on 3' end as substrate assessed as reduction in exonuclease proofreading activity at 3'-5' direction at 100 uM relative to control
Plasmodium falciparum [6] = assay: Non-competitive inhibition of Plasmodium falciparum apicoplast DNA polymerase assessed as inhibition constant for higher affinity site in presence of various concentrations of dNTPs by molecular beacon assay
Plasmodium falciparum [7] = assay: Non-competitive inhibition of Plasmodium falciparum apicoplast DNA polymerase assessed as inhibition constant for lower affinity site in presence of various concentrations of dNTPs by molecular beacon assay
Plasmodium falciparum [8] = assay: Non-competitive inhibition of exonuclease deficient Plasmodium falciparum apicoplast DNA polymerase harboring wild type W512 residue assessed as inhibition constant for higher affinity site in presence of dNTPs
Plasmodium falciparum [9] = assay: Non-competitive inhibition of exonuclease deficient Plasmodium falciparum apicoplast DNA polymerase harboring wild type W512 residue assessed as inhibition constant for lower affinity site in presence of dNTPs
Plasmodium falciparum [10] = assay: Non-competitive inhibition of exonuclease deficient Plasmodium falciparum apicoplast DNA polymerase W512A mutant assessed as inhibition constant for higher affinity site in presence of dNTPs
Plasmodium falciparum [11] = assay: Non-competitive inhibition of exonuclease deficient Plasmodium falciparum apicoplast DNA polymerase W512A mutant assessed as inhibition constant for lower affinity site in presence of dNTPs
Plasmodium falciparum [12] = assay: Competitive inhibition of Plasmodium falciparum apicoplast DNA polymerase assessed as inhibition constant for lower affinity site in presence of various concentrations of dNTPs by molecular beacon assay
[13] = Inhibition of plasmodium falciparum apicoplast DNA polymerase exonuclease activity using blunt-ended double stranded oligonucleotide with 2-aminopurine at position 1 on 3' end as substrate assessed as reduction in exonuclease proofreading activity at 3'-5' direction
Plasmodium falciparum [14] = assay: Antiparasitic activity against Plasmodium falciparum NF54 with attB plasmid infected in red blood cells assessed as reduction in parasitemia incubated for 96 hrs in presence of isopentenyl pyrophosphate by flow cytometry analysis; format: functional, organism-based; conditions: Red blood cell

Chain of DNA polymerase I (Escherichia coli) (P00582 whole entry): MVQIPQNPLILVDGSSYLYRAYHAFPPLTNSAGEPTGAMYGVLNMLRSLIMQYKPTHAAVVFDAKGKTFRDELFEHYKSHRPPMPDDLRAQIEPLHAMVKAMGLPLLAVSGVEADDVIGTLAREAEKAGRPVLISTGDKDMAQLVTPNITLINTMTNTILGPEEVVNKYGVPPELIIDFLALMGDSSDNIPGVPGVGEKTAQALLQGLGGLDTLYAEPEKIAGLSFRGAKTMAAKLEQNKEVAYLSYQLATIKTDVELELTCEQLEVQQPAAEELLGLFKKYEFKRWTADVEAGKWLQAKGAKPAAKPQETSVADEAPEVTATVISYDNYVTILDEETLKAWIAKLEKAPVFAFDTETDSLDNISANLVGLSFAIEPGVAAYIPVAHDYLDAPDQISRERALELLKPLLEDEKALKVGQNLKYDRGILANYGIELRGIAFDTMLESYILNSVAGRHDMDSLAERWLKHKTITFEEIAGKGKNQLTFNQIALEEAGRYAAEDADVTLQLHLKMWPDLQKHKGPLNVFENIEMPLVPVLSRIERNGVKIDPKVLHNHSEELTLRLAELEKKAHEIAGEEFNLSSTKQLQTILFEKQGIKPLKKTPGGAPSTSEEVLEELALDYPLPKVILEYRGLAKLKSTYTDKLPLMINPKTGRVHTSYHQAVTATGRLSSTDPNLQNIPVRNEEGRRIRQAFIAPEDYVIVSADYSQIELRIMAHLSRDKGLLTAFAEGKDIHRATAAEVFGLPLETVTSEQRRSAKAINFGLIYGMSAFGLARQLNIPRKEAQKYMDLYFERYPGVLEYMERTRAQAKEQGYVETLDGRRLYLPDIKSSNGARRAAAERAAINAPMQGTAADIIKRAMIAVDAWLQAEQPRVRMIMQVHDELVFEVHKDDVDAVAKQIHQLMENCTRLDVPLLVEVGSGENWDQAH

SMILES | inhibition [1] | inhibition [2] | EC50 (Plasmodium falciparum [3]) | Activity (Plasmodium falciparum [4]) | inhibition (Plasmodium falciparum [5]) | KiH (Plasmodium falciparum [6]) | KiL (Plasmodium falciparum [7]) | KiH (Plasmodium falciparum [8]) | KiL (Plasmodium falciparum [9]) | KiH (Plasmodium falciparum [10]) | KiL (Plasmodium falciparum [11]) | KiH (Plasmodium falciparum [12]) | IC50 [13] | Activity (Plasmodium falciparum [14])
CC(C)(C)c1ccc(NC(=O)Nc2c3c(nn2-c2ccc(C(F)(F)F)cc2)CSC3)cc1 | inactive | inactive | 1.2 µM | 2.1 U | < 50% |  |  |  |  |  |  |  |  | 
CC(C)(C)c1ccc(NC(=O)Nc2c3c(nn2-c2cccc(Cl)c2)CSC3)cc1 | inactive | inactive | 1.3 µM | 2.6 U | < 50% | 2.73 µM | 12.2 µM | 2.73 µM | 12.2 µM | 4.65 µM | 6.8 µM |  |  | 
Cc1cccc(-n2nc3c(c2NC(=O)Nc2ccc(C(C)(C)C)cc2)CSC3)c1 | inactive | inactive | 3.1 µM | 1.2 U | < 50% |  |  |  |  |  |  |  |  | 
CC(C)(C)c1ccc(C(=O)Nc2c3c(nn2-c2cccc(Cl)c2)COC3)cc1 | inactive | inactive | 4.6 µM | 1.2 U |  |  |  |  |  |  |  |  |  | 
CC(C)(C)c1ccc(C(=O)Nc2c3c(nn2-c2ccc(Cl)cc2)CSC3)cc1 | inactive | inactive | 4.2 µM | 2.4 U | < 50% |  |  |  |  |  |  |  |  | 
CC(=O)Nc1c2c(nn1-c1cccc(Cl)c1)COC2 | inactive | inactive | > 20 µM | 2.2 U |  |  |  |  |  |  |  |  |  | 
CC(C)(C)c1ccc(NC(=O)Nc2c3c(nn2-c2cccc(C(F)(F)F)c2)CSC3)cc1 | inactive | inactive | 4.3 µM | 1.4 U | < 50% | 2.17 µM |  |  |  |  |  | 11.9 µM |  | 
CC(C)(C)c1ccc(NC(=O)Nc2c3c(nn2-c2ccncc2)COC3)cc1 | inactive | inactive | 3.3 µM | 1.3 U |  |  |  |  |  |  |  |  |  | 
CC(C)(C)C(=O)Nc1c2c(nn1-c1cccc(Cl)c1)COC2 | inactive | inactive | > 20 µM | 2.6 U |  |  |  |  |  |  |  |  |  | 
O=C(Nc1c2c(nn1-c1cccc(Cl)c1)COC2)C(F)(F)F | inactive | inactive | > 20 µM | 2.3 U |  |  |  |  |  |  |  |  |  | 
Cc1cccc(-n2nc3c(c2NC(=O)c2ccc(C(C)(C)C)cc2)CSC3)c1 | inactive | inactive | 5.9 µM | 2.3 U | < 50% |  |  |  |  |  |  |  |  | 
CC(C)(C)c1ccc(S(=O)(=O)Nc2c3c(nn2-c2ccc(Cl)cc2)CSC3)cc1 | inactive | inactive | > 20 µM | 0.06 U | > 90% |  |  |  |  |  |  |  | 21 µM | 
CC(C)(C)c1ccc(C(=O)Nc2c3c(nn2-c2cccc(Cl)c2)C[S+]([O-])C3)cc1 (centres undefined) | inactive | inactive | 4.8 µM | 1.9 U |  |  |  |  |  |  |  |  |  | 
Cc1ccc(-n2nc3c(c2NC(=O)c2ccc(C(C)(C)C)cc2)CSC3)cc1 | inactive | inactive | > 20 µM | 1.5 U | < 50% |  |  |  |  |  |  |  |  | 
Cc1ccc(-n2nc3c(c2NS(=O)(=O)c2ccc(C(C)(C)C)cc2)CSC3)cc1 | inactive | inactive | > 20 µM | 2.2 U |  |  |  |  |  |  |  |  |  | 
O=C(Nc1c2c(nn1-c1cccc(Cl)c1)COC2)c1ccc2ccccc2c1 | inactive | inactive | 8 µM | 1.8 U |  |  |  |  |  |  |  |  |  | 
Cc1cccc(-n2nc3c(c2NS(=O)(=O)c2ccc(C(C)(C)C)cc2)CSC3)c1 | inactive | inactive | > 20 µM | 2.3 U |  |  |  |  |  |  |  |  |  | 
CC(C)(C)c1ccc(C(=O)Nc2c3c(nn2-c2ccc(C(F)(F)F)cc2)CSC3)cc1 | inactive | inactive | 4.8 µM | 2 U | < 50% |  |  |  |  |  |  |  |  | 
Cc1ccc(-n2nc3c(c2NC(=O)Nc2ccc(C(C)(C)C)cc2)CSC3)cc1 | inactive | inactive | 4.5 µM | 1.8 U | < 50% |  |  |  |  |  |  |  |  | 
CC(C)(C)c1ccc(NC(=O)Nc2c3c(nn2-c2cccc(Cl)c2)COC3)cc1 | inactive | inactive | 0.74 µM | 2.4 U |  |  |  |  |  |  |  |  |  | 
CC(C)(C)c1ccc(S(=O)(=O)Nc2c3c(nn2-c2ccc(C(F)(F)F)cc2)CSC3)cc1 | inactive | inactive | > 20 µM | 0.01 U | > 90% |  |  |  |  |  |  |  | 16 µM | 
O=C(Nc1c2c(nn1-c1cccc(Cl)c1)COC2)c1ccc(-c2ccccc2)cc1 | inactive | inactive | > 20 µM | 1.2 U |  |  |  |  |  |  |  |  |  | 
CC(C)(C)c1ccc(S(=O)(=O)Nc2c3c(nn2-c2cccc(C(F)(F)F)c2)CSC3)cc1 | inactive | inactive | > 20 µM | 0.06 U | > 90% |  |  |  |  |  |  |  |  | 
CC(C)(C)c1ccc(S(=O)(=O)Nc2c3c(nn2-c2cccc(Cl)c2)CSC3)cc1 | inactive | inactive | > 20 µM | 0.4 U | > 90% |  |  |  |  |  |  |  | 40 µM | 
CC(C)(C)c1ccc(C(=O)Nc2c3c(nn2-c2cccc(C(F)(F)F)c2)CSC3)cc1 | inactive | inactive | 2 µM | 2.4 U | < 50% |  |  |  |  |  |  |  |  | 
CC(C)(C)c1ccc(NC(=O)Nc2c3c(nn2-c2cnccn2)COC3)cc1 | inactive | inactive | 2.5 µM | 1.7 U |  |  |  |  |  |  |  |  |  | 
CC(C)(C)c1ccc(C(=O)Nc2c3c(nn2-c2cccc(Cl)c2)CSC3)cc1 | inactive | inactive | 4 µM | 1.6 U | < 50% | 5.98 µM | 15.9 µM |  |  |  |  |  |  | Active
CC(C)(C)c1ccc(NC(=O)Nc2c3c(nn2-c2ccc(Cl)cc2)CSC3)cc1 | inactive | inactive | 1 µM | 2.1 U | < 50% | 1.97 µM | 15 µM |  |  |  |  |  |  | 
